Measured values reported in ChEMBL document CHEMBL6092154, “Design, synthesis, and evaluation of a novel TRAIL-activated HDAC6 inhibitor for the treatment of pulmonary fibrosis” (Bioorg Med Chem, 2024).
Calls of active or inactive are those of the source. The calls are words filed in the database; no cut-off is given here.

Legend:
[1] = biological target: Histone deacetylase 2 (Homo sapiens, UniProt Q92769); test: Inhibition of HDAC2 (unknown origin) at 1 uM incubated for 30 mins by fluorometric analysis
Sequence of Histone deacetylase 2 (Q92769 whole entry): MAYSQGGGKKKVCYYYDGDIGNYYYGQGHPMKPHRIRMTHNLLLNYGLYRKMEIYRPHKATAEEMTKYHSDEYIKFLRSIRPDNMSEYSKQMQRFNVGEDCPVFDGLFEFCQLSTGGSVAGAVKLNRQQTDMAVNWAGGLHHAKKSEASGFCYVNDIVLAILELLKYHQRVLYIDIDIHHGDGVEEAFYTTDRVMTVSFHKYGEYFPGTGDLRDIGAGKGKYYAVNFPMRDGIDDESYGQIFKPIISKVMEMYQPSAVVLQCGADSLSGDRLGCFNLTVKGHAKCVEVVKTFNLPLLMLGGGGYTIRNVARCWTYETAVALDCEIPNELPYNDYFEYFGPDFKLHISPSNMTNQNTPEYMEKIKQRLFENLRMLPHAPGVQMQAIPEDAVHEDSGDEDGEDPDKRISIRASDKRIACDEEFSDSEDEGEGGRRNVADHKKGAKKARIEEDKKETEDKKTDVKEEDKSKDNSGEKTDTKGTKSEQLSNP

[2] = biological target: T1, Histone deacetylase 8 (Homo sapiens) (UniProt Q9BY41); test: Inhibition of HDAC8 (unknown origin) at 1 uM incubated for 30 mins by fluorometric analysis
T1 sequence (whole entry): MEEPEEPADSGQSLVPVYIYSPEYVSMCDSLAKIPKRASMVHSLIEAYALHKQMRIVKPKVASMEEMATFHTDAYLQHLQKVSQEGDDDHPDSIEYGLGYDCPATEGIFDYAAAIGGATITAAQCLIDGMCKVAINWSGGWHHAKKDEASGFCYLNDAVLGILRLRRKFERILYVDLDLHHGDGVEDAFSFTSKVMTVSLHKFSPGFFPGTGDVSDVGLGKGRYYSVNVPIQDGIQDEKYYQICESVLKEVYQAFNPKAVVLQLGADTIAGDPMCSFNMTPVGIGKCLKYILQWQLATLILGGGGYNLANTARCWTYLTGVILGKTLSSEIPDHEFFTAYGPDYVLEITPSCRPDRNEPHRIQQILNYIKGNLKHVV

[3] = biological target: Histone deacetylase 3 (Homo sapiens, UniProt O15379); test: Inhibition of HDAC3 (unknown origin) incubated for 30 mins by fluorometric analysis
Sequence of Histone deacetylase 3 (O15379 whole entry): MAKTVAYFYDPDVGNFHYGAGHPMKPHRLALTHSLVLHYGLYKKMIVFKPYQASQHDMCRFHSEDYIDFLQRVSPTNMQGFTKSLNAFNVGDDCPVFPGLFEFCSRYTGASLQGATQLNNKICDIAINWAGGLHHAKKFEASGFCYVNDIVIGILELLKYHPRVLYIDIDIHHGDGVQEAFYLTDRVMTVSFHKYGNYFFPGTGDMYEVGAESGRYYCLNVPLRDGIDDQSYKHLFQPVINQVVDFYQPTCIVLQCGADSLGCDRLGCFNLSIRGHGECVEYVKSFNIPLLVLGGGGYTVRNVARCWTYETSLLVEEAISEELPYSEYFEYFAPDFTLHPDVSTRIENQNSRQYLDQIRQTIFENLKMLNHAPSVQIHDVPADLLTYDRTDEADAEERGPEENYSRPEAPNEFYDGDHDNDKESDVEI

[4] = biological target: T2, Histone deacetylase 8 (Homo sapiens, UniProt Q9BY41); test: Inhibition of HDAC8 (unknown origin) incubated for 30 mins by fluorometric analysis
T2 sequence (Q9BY41 whole entry): T1 sequence (whole entry)

[5] = biological target: T3, Protein deacetylase HDAC6 (Homo sapiens) (UniProt Q9UBN7); test: Inhibition of HDAC6 in human RPMI-8226 cells assessed as increase in acetylated histone H4 level at 0.25 to 1 uM incubated for 24 hrs by western blot analysis; format: cell-based; details: dose 0.25-1 µM
T3 sequence (whole entry): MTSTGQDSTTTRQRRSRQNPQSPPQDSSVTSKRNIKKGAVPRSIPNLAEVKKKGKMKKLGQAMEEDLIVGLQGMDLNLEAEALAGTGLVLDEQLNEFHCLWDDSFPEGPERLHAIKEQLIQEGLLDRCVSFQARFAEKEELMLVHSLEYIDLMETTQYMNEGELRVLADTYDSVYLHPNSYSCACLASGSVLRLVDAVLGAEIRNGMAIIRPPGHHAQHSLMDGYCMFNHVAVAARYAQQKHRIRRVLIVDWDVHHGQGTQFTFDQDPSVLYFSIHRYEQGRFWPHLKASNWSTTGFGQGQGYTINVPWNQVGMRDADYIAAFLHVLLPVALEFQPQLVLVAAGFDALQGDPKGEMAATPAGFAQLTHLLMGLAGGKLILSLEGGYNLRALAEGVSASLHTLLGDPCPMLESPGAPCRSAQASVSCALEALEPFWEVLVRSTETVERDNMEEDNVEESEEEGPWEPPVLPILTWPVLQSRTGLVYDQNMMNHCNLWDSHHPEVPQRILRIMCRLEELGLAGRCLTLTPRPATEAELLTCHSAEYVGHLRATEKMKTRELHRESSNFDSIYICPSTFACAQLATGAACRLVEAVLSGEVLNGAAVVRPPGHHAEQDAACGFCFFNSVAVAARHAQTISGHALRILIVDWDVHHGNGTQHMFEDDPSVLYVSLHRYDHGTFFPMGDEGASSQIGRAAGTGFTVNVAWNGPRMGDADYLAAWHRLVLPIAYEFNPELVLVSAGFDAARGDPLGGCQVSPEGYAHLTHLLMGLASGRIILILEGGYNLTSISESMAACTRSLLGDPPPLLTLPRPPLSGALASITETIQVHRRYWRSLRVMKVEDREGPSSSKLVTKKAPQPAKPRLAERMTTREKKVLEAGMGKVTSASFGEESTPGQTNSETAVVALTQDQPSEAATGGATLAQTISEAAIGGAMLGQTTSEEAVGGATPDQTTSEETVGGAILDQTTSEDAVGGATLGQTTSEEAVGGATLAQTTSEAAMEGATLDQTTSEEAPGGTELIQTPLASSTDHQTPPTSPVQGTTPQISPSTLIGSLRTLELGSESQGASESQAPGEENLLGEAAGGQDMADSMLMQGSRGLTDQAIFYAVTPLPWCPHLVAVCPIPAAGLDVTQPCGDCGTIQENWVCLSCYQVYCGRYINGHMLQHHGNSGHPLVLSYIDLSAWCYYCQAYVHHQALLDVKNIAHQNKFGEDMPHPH

[6] = tested on: Mus musculus; test: Anti-pulmonary fibrosis activity in bleomycin-induced idiopathic pulmonary fibrosis C57BL/6J mouse model assessed as decrease in lung damage by measuring decrease in collagen deposition in lung at 25 to 50 mg/kg, ig administered daily via gavage and measured on day 14 by Hematoxylin-Eosin staining based analysis; format: functional, organism-based; details: dose 25-50 mg/kg, time 14.0 day
[7] = Toxicity against silicosis C57BL/6J mouse model assessed as ALT index in serum at 50 mg/kg, ig administered daily via gavage and measured on day 28; format: organism-based; details: in vivo, po, 672 h, time 28 day
[8] = Toxicity against silicosis C57BL/6J mouse model assessed as effect on liver morphological changes at 50 mg/kg, ig administered daily via gavage and measured on day 28 by Hematoxylin-Eosin staining based analysis; format: organism-based; details: in vivo, po, 672 h, time 28 day

- inhibition [1]: 61.8%
- inhibition [2]: 76.2%
- IC50 [3]: 1140 nM
- IC50 [4]: 333 nM
- inhibition [5]: Active
Structure (SMILES): O=C(NO)c1ccc(CN2C(=O)C3=C(CCN(Cc4cccc(Cl)c4)C3)N3CCN=C23)cc1
- Activity [6]: Active
- Activity [7]: Non-toxic
- Activity [8]: Non-toxic
